Legend:
[1] = test system: Jurkat; test: Antiproliferative activity against human Jurkat cells assessed as reduction in cell viability incubated for 48 hrs by CCK-8 assay; type: functional, cell-based
[2] = test system: CT26; test: Synergistic antiproliferative activity against mouse CT26 cells assessed as reduction in cell viability incubated for 48 hrs in presence of doxorubicin by CCK-8 assay; type: functional, cell-based; settings: CT26, 48 h
[3] = test system: B16-F10; test: Synergistic antiproliferative activity against mouse B16-F10 cells assessed as reduction in cell viability incubated for 48 hrs in presence of doxorubicin by CCK-8 assay; type: functional, cell-based; settings: B16-F10, 48 h
[4] = test system: HepG2; test: Inhibition of DNA damage repair in human HepG2 cells assessed as reduction in gammaH2AX fluorescence intensity by DAPI staining based immunofluorescence analysis; type: functional, cell-based; settings: dose 10-40 µM
[5] = Half-life in male Sprague-Dawley rat at 2 mg/kg, iv measured after 48 hrs by LC-MS/MS analysis; type: ADME, organism-based; settings: in vivo
[6] = Apparent volume of distribution in male Sprague-Dawley rat at 2 mg/kg, iv measured after 48 hrs by LC-MS/MS analysis; type: ADME, organism-based; settings: in vivo, read-out: Vz
[7] = AUC (0 to t) in male Sprague-Dawley rat at 10 mg/kg, po measured after 48 hrs by LC-MS/MS analysis; type: ADME, organism-based; settings: in vivo
[8] = Half-life in male Sprague-Dawley rat at 10 mg/kg, po measured after 48 hrs by LC-MS/MS analysis; type: ADME, organism-based; settings: in vivo
[9] = Clearance in male Sprague-Dawley rat at 10 mg/kg, po measured after 48 hrs by LC-MS/MS analysis; type: ADME, organism-based; settings: in vivo
[10] = Toxicity in BALB/c mouse implanted with mouse CT26 cells assessed as death at 10 mg/kg, ip QD co-administered with doxorubicin for 21 days; type: organism-based; settings: in vivo, 504 h, time 21 day
[11] = Toxicity in BALB/c mouse implanted with mouse CT26 cells assessed as weight loss at 10 mg/kg, ip QD co-administered with doxorubicin for 21 days; type: organism-based; settings: in vivo, 504 h, time 21 day
[12] = Toxicity in BALB/c mouse implanted with mouse CT26 cells assessed as weight loss at 10 mg/kg, ip administered once daily for 21 days; type: organism-based; settings: in vivo, 504 h, time 21 day
[13] = test system: B16-F10; test: Antitumor activity against mouse B16-F10 cells implanted in C57BL/6 mouse assessed as tumor growth inhibition at 10 mg/kg, ip administered once daily for 13 days relative to control; type: functional; settings: B16-F10, 312 h, time 13 day, read-out: TGI
[14] = test system: B16-F10; test: Antitumor activity against mouse B16-F10 cells implanted in C57BL/6 mouse assessed as tumor growth inhibition at 10 mg/kg, ip QD co-administered with PD-L1 antibody for 13 days relative to control; type: functional; settings: B16-F10, 312 h, time 13 day, read-out: TGI
[15] = Toxicity in C57BL/6 mouse implanted with mouse B16-F10 cells assessed as effect on body weight at 10 mg/kg, ip QD co-administered with PD-L1 antibody for 13 days; type: organism-based; settings: in vivo, 312 h, time 13 day
[16] = test system: B16-F10; test: Immunomodulatory activity in mouse B16-F10 cells implanted in C57BL/6 mouse assessed as percentage of CD3 positive CD8 positive cells in tumor at 10 mg/kg, ip administered once daily for 13 days by flow cytometric analysis (reference value: 0.99%); type: functional; settings: time 13 day
[17] = Toxicity in C57BL/6 mouse implanted with mouse B16-F10 cells assessed as change in heart histopathology at 10 mg/kg, ip administered once daily for 13 days by H&E staining based analysis; type: organism-based; settings: in vivo, 312 h, time 13 day
[18] = Toxicity in C57BL/6 mouse implanted with mouse B16-F10 cells assessed as change in liver histopathology at 10 mg/kg, ip administered once daily for 13 days by H&E staining based analysis; type: organism-based; settings: in vivo, 312 h, time 13 day
[19] = Toxicity in C57BL/6 mouse implanted with mouse B16-F10 cells assessed as change in spleen histopathology at 10 mg/kg, ip administered once daily for 13 days by H&E staining based analysis; type: organism-based; settings: in vivo, 312 h, time 13 day
[20] = Toxicity in C57BL/6 mouse implanted with mouse B16-F10 cells assessed as change in lung histopathology at 10 mg/kg, ip administered once daily for 13 days by H&E staining based analysis; type: organism-based; settings: in vivo, 312 h, time 13 day

Cc1cc2cccnc2cc1Nc1ncc2c(n1)N(C1CCOCC1)Cc1nncn1-2
IC50 [1]: 0.6 µM
IC50 [2]: 9.7 µM
IC50 [3]: 4.9 µM
inhibition [4]: Dose-Dependent Effect
half-life [5]: 1 h
Vd [6]: 4.7 L/kg
AUC(0-t) at 48 h [7]: 950 ng·h/mL
half-life [8]: 2 h
CL/F [9]: 210 mL/min/kg
Activity [10]: Non-Toxic
Activity [11]: Non-Toxic
Activity [12]: Non-Toxic
inhibition in vivo at 10 mg/kg [13]: 35.9%
inhibition in vivo at 10 mg/kg [14]: 60.5%
Activity [15]: Non-Toxic
Activity [16]: 1.12%
Activity [17]: Non-Toxic
Activity [18]: Non-Toxic
Activity [19]: Non-Toxic
Activity [20]: Non-Toxic

— ChEMBL document CHEMBL5543136, “Discovery of Novel Heterotricyclic Compounds as DNA-Dependent Protein Kinase (DNA-PK) Inhibitors with Enhanced Chemosensitivity, Oral Bioavailability, and the Ability to Potentiate Cancer Immunotherapy” (J Med Chem, 2024)
